We go through 6 compounds from US3959300A, “Novel indolobenzazepine derivatives, useful as tranquilizers” (priority 1974, dated 1976).

Like-named read-outs stand apart in the source and are kept apart here.

One series in a line: Water solubility. The series is classed as physicochemical. As to conditions: methanesulfonate salt.
Series [1] relates to approach-avoidance ("conflict") situation. The series is described as follows: Rat Conflict (Approach-Avoidance) Test. The series is classed as in vivo. As to conditions: for minimal effective dose: read-out: Conflict (rat) MED. On the procedure: Results given in: mg/kg po/rat
Rat Conflict (Approach-Avoidance) Test: Food deprived rats are trained to pass from one compartment to an adjacent one to obtain food. The training consists of three exposures to the test situation on day one of the experiment. The rats are given limited (1-2 hr) free access to food in their home cages on day one and are then food deprived for at least 18 hours. On day two of the experiment, the rats are given a control exposure to the test situation followed by a second exposure after 1/2 to 1 hour in which they are shocked after crossing and eating. Groups of 6-8 rats are then dosed orally with solvent or test compound and then reexposed to the test situation after 1 or 2 hours.
This effect is dose-related (and the MED is the minimum dose at which this effect is obtained); rats dosed with solvent only consistently show a high level of fear as evidenced by decreased mobility and absence of feeding when placed in the test situation after receiving a shock.

The test system of another series is approach-behavior. The series is described as follows: Rhesus Monkey Approach Effects. The series is classed as in vivo. As to conditions: po; for minimal effective dose: Macaca mulatta, read-out: Approach (monkey) MED. As to the method:
(§1) Results given in: mg/kg po/monkey
Rhesus Monkey Approach Effects: Compounds are administered orally to groups of six rhesus monkeys. The behavior of the animals is then evaluated by observational means. […] The MED is the oral dose at which the animals show signs of decreased fear.

A further series concerns locomotor activity. The series is described as follows: Mouse Screen (decrease in locomotor activity). As to conditions: po, read-out: Screen (mouse) MED. It is filed as in vivo. The text has this:
(§2) Results given in: mg/kg po/mouse
Mouse Screen: The minimal effective dose (MED) is the lowest oral dose producing an obvious decrease in locomotor activity, using observational techniques. Groups of 3 mice are given decreasing oral doses at 0.5 log intervals (300, 100, 30 . . . etc.) until no behavioral effects are evident. Decrease of locomotor activity is indicative of general central nervous system depressant activity.

The next series relates to taming. The series is described as follows: Rhesus Monkey Taming Effects. It is filed as in vivo. As to conditions: po; for minimal effective dose: Macaca mulatta, read-out: Taming (monkey) MED. On the procedure:
as §1
Rhesus Monkey Taming Effects: Compounds are administered orally to groups of six rhesus monkeys. The behavior of the animals is then evaluated by observational means. Taming effects are determined by the ability of the observer to approach and touch the monkey. Compounds with major tranquilizer activity in man can produce a state of passive tameness in the rhesus monkey wherein it can be touched without provoking any of the threatening or aggressive behavior seen in the normal animal. The MED is the minimal oral dose at which some taming effect can be observed.

In series [2] the test system is Conditioned Avoidance Response. As to the kind of experiment: Dog Conditioned Avoidance Response (C.A.R.). The series is classed as in vivo. As to conditions: po; for ED50: Canis lupus familiaris, read-out: C.A.R. (dog) ED50. On the procedure:
Results given in: mg/kg po/dog
Dog Conditioned Avoidance Response: Dogs are trained to raise a forelimb when presented with a conditioned stimulus (light) in order to avoid an electric shock. Blocks of 10 trials are given to groups of four dogs during a pretreatment period and at 1, 2, and 4 hours after oral administration of test compound. The ED50 values are calculated as the dose causing 50% of the animals to show five or more incorrect responses. Blocking of the C.A.R. at non-toxic doses appears to correlate with major tranquilizer activity in man.

Series [3] relates to Conditioned Avoidance Response. The series is described as follows: Mouse Conditioned Avoidance Response (C.A.R.). The series is classed as in vivo. The settings on record: po, read-out: C.A.R. (mouse) ED50. As to the method:
(§3) Results given in: mg/kg po/mouse mg/kg po/rat
(§4) Mouse and Rat Conditioned Avoidance Response: Mice and rats are trained to jump out of a pit onto a ledge to avoid shock when presented with a light and sound conditioned stimulus. The animals are tested 1, 2, and 4 hours after administration of the test compound. Three to 4 dose levels and groups of 4-8 animals/dose are used. The ED50 is the dose producing a block of the C.A.R. in 50% of the animals. Blocking of the C.A.R. at non-toxic doses appears to correlate with major tranquilizer activity in man.

Series [4] concerns Conditioned Avoidance Response. The series is described as follows: Rat Conditioned Avoidance Response (C.A.R.). It is filed as in vivo. The settings on record: po, read-out: C.A.R. (rat) ED50. On the procedure: as §3, §4
Series [5] has as its system amphetamine hyperactivity. As to the kind of experiment: Mouse Anti-Amphetamine Activity (A.A.). The series is classed as in vivo. The settings on record: po, read-out: A.A. (mouse) ED50. As to the method: as §2
Mouse Anti-Amphetamine Activity: Groups of 5 mice are given d-amphetamine sulfate 5 mg/kg sc 1 hour after oral administration of graded doses of test compound. The mice are placed in photocell activity units immediately after amphetamine administration and locomotor activity is recorded for 60 minutes. The ED50 is calculated as the dose causing a 50% reduction in locomotor activity relative to the activity of the amphetamine-treated control mice. Amphetamine antagonism at non-toxic doses appears to correlate with major tranquilizer activity in man.

[6] abbreviates: po, rat, reexposed after 1 or 2 hours.
Where [7] appears, read: mouse, tested 1, 2, and 4 hours after administration.
[8] abbreviates: rat, tested 1, 2, and 4 hours after administration.
Where [9] appears, read: mouse, lowest dose producing obvious decrease in locomotor activity.
Where [10] appears, read: mouse, d-amphetamine sulfate 5 mg/kg sc 1 hour after compound, 60 minutes recording.
The mark [11] stands for this setting: dog, 1, 2, and 4 hours after administration.

A word on the solubility: it is how much of the substance goes into solution per volume. The ED50 is the dose that gives a 50% effect, or the effect in half of the subjects.

Take `CS(=O)(=O)O.c1ccc2c(c1)CCc1cccc3c4c(n-2c13)CCN(CC1CC1)C4` [3-(cyclopropylmethyl)-1,2,3,4,8,9-hexahydropyrido[4',3':2,3]indolo[1,7-ab][1]benzazepine methanesulfonate]: the solubility in the series “Water solubility” is greater than 500 mg/mL.
In the case of `CN1C(=O)CN=C(c2ccccc2)c2cc(Cl)ccc21` [diazepam, reference compound], the minimal effective dose lay within 3 to 10 mg/kg in series [1] (Rattus norvegicus, po); 3 to 10 mg/kg with approach-behavior; 3 to 10 mg/kg in the series with locomotor activity (Mus musculus). For the same compound, the “decreased fear in the test animals, in words” value in series [1] (rats cross to obtain food despite earlier shock, dose-related) was “apparent decreased fear in the test animals”. In addition, in the series with taming (rhesus monkey), the “Taming (monkey) MED, symbol” value was “I”. In addition, the “C.A.R. (dog) ED50, symbol” value in [2] (dog) is given as “I”.
As to `Cl.c1ccc2c(c1)CCc1cccc3c4c(n-2c13)CCN(CC1CCC1)C4` [No. 6, 3-(cyclobutylmethyl)-1,2,3,4,8,9-hexahydropyrido[4',3':2,3]indolo[1,7-ab][1]benzazepine hydrochloride], the minimal effective dose is greater than 40 mg/kg in series [1] (setting [6]), 10 to 30 mg/kg in the series with locomotor activity (setting [9]) and 1 to 3 mg/kg with taming (rhesus monkey). Further, the ED50 came to 6 mg/kg in [3] (setting [7]), 4 mg/kg in series [4] (setting [8]), 20 mg/kg in series [5] (setting [10]) and 20 mg/kg in series [2] (setting [11]).
For `c1ccc2c(c1)CCc1cccc3c4c(n-2c13)CCN(CC1CC1)C4` [No. 3, 3-(cyclopropylmethyl)-1,2,3,4,8,9-hexahydropyrido[4',3':2,3]indolo[1,7-ab][1]benzazepine], the minimal effective dose in [1] (setting [6]) is 10 to 20 mg/kg; with approach-behavior (rhesus monkey), 1 to 3 mg/kg; in the series with locomotor activity (Mus musculus), 30 to 100 mg/kg; with taming (rhesus monkey) it was 3 to 10 mg/kg. In addition, the ED50 in series [3] (setting [7]) is 20 mg/kg; in series [4] (setting [8]), 40 mg/kg; in series [5] (setting [10]) it was 6 mg/kg; in series [2] (setting [11]) it was greater than 20 mg/kg.
As to `Cl.c1ccc2c(c1)CCc1cccc3c4c(n-2c13)CCN(CC1CCCC1)C4` [No. 7, 3-(cyclopentylmethyl)-1,2,3,4,8,9-hexahydropyrido[4',3':2,3]indolo[1,7-ab][1]benzazepine hydrochloride], the results for the minimal effective dose (in series [1] (setting [6]); in the series on locomotor activity (setting [9]); in the series on taming (rhesus monkey)) were greater than 40 mg/kg, 3 to 10 mg/kg and 1 to 3 mg/kg, respectively. The median effective dose (ED50) in [3] (setting [7]) was determined as 20 mg/kg; in series [4] (setting [8]), 30 mg/kg; in series [5] (setting [10]), 2 mg/kg; in [2] (setting [11]) it was 6 mg/kg.
Regarding `CN(C)CCCN1c2ccccc2Sc2ccc(Cl)cc21` [chlorpromazine, reference compound], the “Conflict (rat) MED, symbol” value in series [1] (po, rat) is given as “I”. Also, the ED50 in series [3] (Mus musculus, 4 h) is 5 mg/kg; in series [4] (Rattus norvegicus, 4 h), 10 mg/kg; in series [5] (Mus musculus, 1 h) it was 5 mg/kg; in series [2] (4 h), 6 mg/kg. Moreover, the “Approach (monkey) MED, symbol” value in the series with approach-behavior (rhesus monkey) is “I”. The minimal effective dose in the series with locomotor activity (Mus musculus) lay in the range of 3 to 10 mg/kg; in the series with taming, 10 to 30 mg/kg.
